Test results as given in patent publication US9193731B2, “Antimicrobial compounds and methods of making and using the same” (Melinta Therapeutics, Inc., priority 2009, dated 2015).

What follows are molecules tested on Escherichia coli strain ATCC25922 (assay: standard microdilution assay to determine minimum inhibitory concentrations (MICs)). Conditions: Escherichia coli strain ATCC25922, microdilution.
Format: cell-based
Method in brief: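 E. coli strain ATCC25922 tested per CLSI microdilution methodology (about 100 microliters per well) to find minimum inhibitory concentrations. Activity scored categorically at a 16 micrograms/ml threshold.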

Compound	E. coli ATCC25922 MIC
N=C(N)NCCCNCc1ccc(-n2cc3cc(-c4ccc(C(NC5CNC5)C(F)F)cc4)[nH]c3nc2=O)cc1 (centres unmarked) [Compound 1462]	+ (a “+” indicates that the compound has an MIC value of 16 micrograms/ml or less)
N=C(N)NCCCNCc1ccc(-n2cc3cc(-c4ccc(S(=O)(=O)CCCNC5CCCNC5)cc4)[nH]c3nc2=O)cc1 (centres unmarked) [Compound 1293]	+ (a “+” indicates that the compound has an MIC value of 16 micrograms/ml or less)
CS(=O)(=O)c1ccc(-c2cc(OCC(F)CN)cc(-c3cc4cn(-c5ccc(CNCCCNC(=N)N)cc5)c(=O)nc4[nH]3)c2)cc1 (centres unmarked) [Compound 2002a]	− (a “−” indicates that the compound has an MIC value greater than 16 micrograms/ml)
N=C(N)NCCCNCc1ccc(-n2cc3cc(-c4cccc(OCC5(CN)CCC5)c4)[nH]c3nc2=O)cc1 [Compound 1434]	+ (a “+” indicates that the compound has an MIC value of 16 micrograms/ml or less)
NCCCOc1cccc(-c2cc3cn(-c4ccc(CNCCCN=C(N)N)cc4)c(=O)nc3[nH]2)c1 [Compound 1179]	+ (a “+” indicates that the compound has an MIC value of 16 micrograms/ml or less)
N=C(N)NCCCNCc1ccc(-n2cc3cc(-c4cncc(CCCCN)c4)[nH]c3nc2=O)cc1 [Compound 2060a]	+ (a “+” indicates that the compound has an MIC value of 16 micrograms/ml or less)
N=C(N)NCCCNCc1ccc(-n2cc3cc(-c4cc(OCC(F)CN)cc(-c5cccnc5)c4)[nH]c3nc2=O)cc1 (centres unmarked) [Compound 2001a]	− (a “−” indicates that the compound has an MIC value greater than 16 micrograms/ml)
N=C(N)NCCCNCc1ccc(-n2cc3cc(-c4cccc(OCCC5(N)CCCC5)c4)[nH]c3nc2=O)cc1 [Compound 1447]	+ (a “+” indicates that the compound has an MIC value of 16 micrograms/ml or less)
COc1cc(-n2cc3cc(-c4cccc(OCC(C)(C)CN)c4)[nH]c3nc2=O)ccc1CNCCCNC(=N)N [Compound 1328]	+ (a “+” indicates that the compound has an MIC value of 16 micrograms/ml or less)
N=C(N)NCCCNCc1ccc(-n2cc3cc(-c4cc(C(=O)NCC(F)F)cc(N5CCNCC5)c4)[nH]c3nc2=O)cc1 [Compound 970]	+ (a “+” indicates that the compound has an MIC value of 16 micrograms/ml or less)
N=C(N)NCCCNCc1ccc(-n2cc3cc(-c4cc(C(=O)Nc5nc(C(F)(F)F)cs5)cc(N5CCNCC5)c4)[nH]c3nc2=O)cc1 [Compound 1061]	+ (a “+” indicates that the compound has an MIC value of 16 micrograms/ml or less)
N=C(N)NCCCNCC(Cn1cc2cc(-c3ccc(S(=O)(=O)NC4CCNCC4)cc3)[nH]c2nc1=O)OCc1ccc(F)c(F)c1 (centres unmarked) [Compound 1089]	− (a “−” indicates that the compound has an MIC value greater than 16 micrograms/ml)
NC(=O)c1ccc(-n2cc3cc(-c4ccc(S(=O)(=O)N(CCCn5ccc(C(F)(F)F)n5)C5CCNCC5)cc4)[nH]c3nc2=O)cc1 [Compound 1116]	− (a “−” indicates that the compound has an MIC value greater than 16 micrograms/ml)
N=C(N)NCCCNCc1ccc(-n2cc3cc(-c4ccc(S(=O)(=O)NC5CCOCC5)cc4)[nH]c3nc2=O)cc1 [Compound 864]	− (a “−” indicates that the compound has an MIC value greater than 16 micrograms/ml)
N=C(N)NCCCNC(=O)c1ccc(-n2cc3cc(-c4ccc(S(=O)(=O)CCCNC5CCNC5)cc4)[nH]c3nc2=O)cc1 (centres unmarked) [Compound 1350]	+ (a “+” indicates that the compound has an MIC value of 16 micrograms/ml or less)
N=C(N)NCCCNCc1ccc(-n2cc3cc(-c4ccc(S(=O)(=O)C[C@@H](O)CN5CCCCC5)cc4)[nH]c3nc2=O)cc1 [Compound 1171]	+ (a “+” indicates that the compound has an MIC value of 16 micrograms/ml or less)
COc1ccc(CN(C2CCNCC2)S(=O)(=O)c2ccc(-c3cc4cn(-c5ccc(C(N)=O)cc5)c(=O)nc4[nH]3)cc2)cc1[N+](=O)[O-] [Compound 1091]	− (a “−” indicates that the compound has an MIC value greater than 16 micrograms/ml)
N=C(N)NCCCNCc1ccc(-n2cc3cc(-c4ccc(S(=O)(=O)N(CC5COc6ccccc6O5)C5CCNCC5)cc4)[nH]c3nc2=O)cc1 (centres unmarked) [Compound 768]	+ (a “+” indicates that the compound has an MIC value of 16 micrograms/ml or less)
N=C(N)NCCCNC(=O)c1ccc(-n2cc3cc(-c4ccc(S(=O)(=O)NC5CCNCC5)cc4)[nH]c3nc2=O)cc1 [Compound 893]	+ (a “+” indicates that the compound has an MIC value of 16 micrograms/ml or less)
N=C(N)NCCCNCc1ccc(-n2cc3cc(-c4ccc(S(=O)(=O)N(CCC(=O)Nc5ccc([N+](=O)[O-])cc5)C5CCNCC5)cc4)[nH]c3nc2=O)cc1 [Compound 854]	+ (a “+” indicates that the compound has an MIC value of 16 micrograms/ml or less)
CSCc1cc(OCC(F)CN)cc(-c2cc3cn(-c4ccc(CNCCCNC(=N)N)cc4)c(=O)nc3[nH]2)c1 (centres unmarked) [Compound 2049a]	+ (a “+” indicates that the compound has an MIC value of 16 micrograms/ml or less)
COCCOCCc1cc(OCC(F)CN)cc(-c2cc3cn(-c4ccc(CNCCCNC(=N)N)cc4)c(=O)nc3[nH]2)c1 (centres unmarked) [Compound 2035a]	− (a “−” indicates that the compound has an MIC value greater than 16 micrograms/ml)
CCOC(CN)COc1cccc(-c2cc3cn(-c4ccc(CNCCCNC(=N)N)cc4)c(=O)nc3[nH]2)c1 (centres unmarked) [Compound 1458]	+ (a “+” indicates that the compound has an MIC value of 16 micrograms/ml or less)
N=C(N)NCCCNC(=O)c1ccc(-n2cc3cc(-c4cc(CCCCN)cc(OC(F)(F)F)c4)[nH]c3nc2=O)cc1 [Compound 2048a]	+ (a “+” indicates that the compound has an MIC value of 16 micrograms/ml or less)
NCCCNCCCCCn1cc2cc(-c3ccc(S(=O)(=O)NC4CCNCC4)cc3)[nH]c2nc1=O [Compound 873]	+ (a “+” indicates that the compound has an MIC value of 16 micrograms/ml or less)
CNCc1ccc(-n2cc3cc(-c4ccc(S(=O)(=O)N(CCCc5ccc(F)cc5)C5CCNCC5)cc4)[nH]c3nc2=O)cc1 [Compound 1062]	− (a “−” indicates that the compound has an MIC value greater than 16 micrograms/ml)
N=C(N)NCCCNCc1ccc(-n2cc3cc(-c4cc(CCCCN)cc([S+]([O-])C(F)(F)F)c4)[nH]c3nc2=O)cc1 (centres unmarked) [Compound 2054a]	+ (a “+” indicates that the compound has an MIC value of 16 micrograms/ml or less)
NCCCNCc1ccc(-c2cn3cc(-c4ccc(C(=O)N5CCN(CCF)CC5)cc4)[nH]c3nc2=O)cc1 [Compound 825]	− (a “−” indicates that the compound has an MIC value greater than 16 micrograms/ml)
CC(N)CCOc1cccc(-c2cc3cn(-c4ccc(CNCCCNC(=N)N)cc4)c(=O)nc3[nH]2)c1 (centres unmarked) [Compound 1439]	+ (a “+” indicates that the compound has an MIC value of 16 micrograms/ml or less)

Same assay, conditions: Escherichia coli, ATCC25922, Escherichia coli strain ATCC25922, microdilution; read-out: E. coli ATCC25922 MIC

MIC	Compound
> 16 µg/mL	NCc1ccc(-n2cc3cc(-c4cccc(S(=O)(=O)N(CCN5CCCC5)C5CCNCC5)c4)[nH]c3nc2=O)cc1 [Compound 1183]
> 16 µg/mL	NCCCNCc1ccc(-c2cn3nc(N)[nH]c3nc2=O)cc1 [Compound 647]
< 16 µg/mL	CNCCCOc1cccc(-c2cc3cn(-c4ccc(CNCCCNC(=N)N)cc4)c(=O)nc3[nH]2)c1 [Compound 1221]
> 16 µg/mL	NCCCNCc1ccc(-c2cn3cc(-c4ccc(C(=O)N5CC[C@@H](F)C5)cc4)[nH]c3nc2=O)cc1 [Compound 668]
> 16 µg/mL	Cc1cc(CN(C(=O)c2ccc(-c3cc4cn(-c5ccc(CN(CCCN)CCCN)cc5)c(=O)nc4[nH]3)cc2)C2CCNCC2)no1 [Compound 226]
> 16 µg/mL	N=C(N)NCCCNCc1ccc(-c2cn3cc(-c4ccc(C(=O)N5CC[C@H](F)C5)cc4)[nH]c3nc2=O)cc1 [Compound 673]
> 16 µg/mL	NCc1ccc(-n2cc3cc(-c4cccc(S(=O)(=O)N(CCn5nccc5N)C5CCNCC5)c4)[nH]c3nc2=O)cc1 [Compound 1248]
> 16 µg/mL	COCCOCCN(C1CCNCC1)S(=O)(=O)c1cccc(-c2cc3cn(-c4ccc(CN)cc4)c(=O)nc3[nH]2)c1 [Compound 1158]
> 16 µg/mL	N=C(N)NCCCNCc1ccc(-c2cn3cc(C(=O)Nc4ccc(F)cc4)[nH]c3nc2=O)cc1 [Compound 965]
> 16 µg/mL	N=C(N)NCCCNCc1ccc(-n2cc3cc(-c4ccccc4OCCCN4CCNCC4)[nH]c3nc2=O)cc1 [Compound 1166]
> 16 µg/mL	O=C(NC1CCNCC1)c1ccc(-c2cc3cn(-c4ccc(CNCc5c[nH]nn5)cc4)c(=O)nc3[nH]2)cc1 [Compound 240]
> 16 µg/mL	O=c1nc2[nH]c(-c3ccc(S(=O)(=O)NC4CCNCC4)cc3)cc2cn1-c1cccc(OC2CCNC2)c1 (centres unmarked) [Compound 1148]
< 16 µg/mL	N=C(N)NCCCNCc1ccc(-n2cc3cc(CCN[C@@H]4CCCNC4)[nH]c3nc2=O)cc1 [Compound 815]
> 16 µg/mL	NCC(Cn1cc2cc(-c3ccc(S(=O)(=O)NC4CCNCC4)cc3)[nH]c2nc1=O)OCc1ccc(F)cc1 (centres unmarked) [Compound 1085]
> 16 µg/mL	NCCCCCN1CCC(n2cc3cc(-c4ccc(F)cc4)[nH]c3nc2=O)C1 (centres unmarked) [Compound 560]
> 16 µg/mL	N=C(N)NCCCNCc1ccc(-c2cn3cc(-c4ccc(C(=O)N5CCOCC5)cc4)[nH]c3nc2=O)cc1 [Compound 654]
< 16 µg/mL	CN(CCCNCc1ccc(-n2cc3cc(-c4ccc(C(=O)NC5CCNCC5)cc4)[nH]c3nc2=O)cc1)C(=N)N [Compound 241]
< 16 µg/mL	N=C(N)NCCCNCc1ccc(C2N=c3cc(-c4cccc(O)c4)[nH]c3=NC2=O)cc1 (centres unmarked) [Compound 1334]
> 16 µg/mL	NCCCN(CCCN)Cc1ccc(-n2cc3cc(-c4ccc(S(=O)(=O)N(CC(=O)O)C5CCNCC5)cc4)[nH]c3nc2=O)cc1 [Compound 230]

Compound	MIC
N=C(N)NCCCN(CCCN)Cc1ccc(-n2cc3cc(-c4ccc(S(=O)(=O)NC5CN6CCC5CC6)cc4)[nH]c3nc2=O)cc1 (centres unmarked) [Compound 219]	< 16 µg/mL
NCCCN(CCCN)Cc1ccc(-n2cc3cc(-c4ccc(C(=O)NC5CN6CCC5CC6)cc4)[nH]c3nc2=O)cc1 (centres unmarked) [Compound 196]	< 16 µg/mL
